The values below come from the supplement of paper PMC12463676, “Small-molecule dissolution of stress granules by redox modulation benefits ALS models” (Nature Chemical Biology, 2025).

Compound in assay [1]: NC(=O)CCCCC1CCSS1 [lipoamide]
Put plainly: thermal stability z-score vs DMSO; higher = more thermally stabilized by treatment. As to conditions: HeLa, lipoamide concentration 100 µM. As for the experimental part: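 Cellular thermal proteome profiling in HeLa cells. Cells were treated with 100 µM lipoamide for 1 h, with or without 1 mM arsenate for a further 1 h, then heated to ten temperatures (37-66.3 °C), and soluble protein was quantified by TMT mass spectrometry relative to 0.1% DMSO controls. The thermal stability score (sum of log2 fold changes minus the abundance score) was transformed to a z-score; mean of n = 3 experiments.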

Compound in assay [2]: O=[As]([O-])(O)O.[K+] [potassium arsenate]
The assay is described as above. As to conditions: HeLa; arsenate concentration 1 mM. How it is done:
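Cellular thermal proteome profiling in HeLa cells treated with 1 mM arsenate for 1 h (DMSO pretreatment), heated to ten temperatures (37-66.3 °C). Soluble protein was quantified by TMT mass spectrometry relative to DMSO controls; the thermal stability score was transformed to a z-score; mean of n = 3 experiments.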

Setting [3] is: arsenate co-treatment: 1 mM arsenate 1 h.
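Further: each temperature applied for 3 min, abundance score taken as mean log2 fold change at the two lowest temperatures, z-score obtained by mean subtraction and division by SD.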

UniProt O60231, sequence (O60231 whole entry): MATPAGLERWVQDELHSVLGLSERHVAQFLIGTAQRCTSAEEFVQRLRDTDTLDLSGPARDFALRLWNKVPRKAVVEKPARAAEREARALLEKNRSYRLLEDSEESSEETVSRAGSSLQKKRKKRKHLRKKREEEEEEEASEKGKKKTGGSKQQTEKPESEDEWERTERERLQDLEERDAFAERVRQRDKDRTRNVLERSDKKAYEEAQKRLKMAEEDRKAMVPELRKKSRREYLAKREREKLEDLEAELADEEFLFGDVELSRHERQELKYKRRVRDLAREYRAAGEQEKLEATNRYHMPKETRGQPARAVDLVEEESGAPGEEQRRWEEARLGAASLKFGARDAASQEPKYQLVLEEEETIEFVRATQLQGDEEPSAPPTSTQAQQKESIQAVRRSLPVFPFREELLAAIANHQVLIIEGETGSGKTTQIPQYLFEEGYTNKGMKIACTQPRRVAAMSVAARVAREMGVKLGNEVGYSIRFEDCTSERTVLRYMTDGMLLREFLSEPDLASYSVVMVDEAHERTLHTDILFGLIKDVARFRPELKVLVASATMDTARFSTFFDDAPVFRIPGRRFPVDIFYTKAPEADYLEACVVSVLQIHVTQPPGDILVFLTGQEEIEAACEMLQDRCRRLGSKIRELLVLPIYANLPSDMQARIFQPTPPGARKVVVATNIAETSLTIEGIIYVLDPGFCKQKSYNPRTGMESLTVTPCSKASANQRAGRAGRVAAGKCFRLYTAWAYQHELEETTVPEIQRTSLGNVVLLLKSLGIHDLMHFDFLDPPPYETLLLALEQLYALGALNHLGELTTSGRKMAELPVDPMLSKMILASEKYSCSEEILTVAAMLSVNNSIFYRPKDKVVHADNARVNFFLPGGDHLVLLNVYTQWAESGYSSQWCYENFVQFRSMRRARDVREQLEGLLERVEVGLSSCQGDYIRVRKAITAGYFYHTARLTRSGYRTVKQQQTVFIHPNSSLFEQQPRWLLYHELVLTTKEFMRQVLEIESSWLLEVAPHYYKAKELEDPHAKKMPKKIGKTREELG
UniProt O76003, sequence (O76003 whole entry): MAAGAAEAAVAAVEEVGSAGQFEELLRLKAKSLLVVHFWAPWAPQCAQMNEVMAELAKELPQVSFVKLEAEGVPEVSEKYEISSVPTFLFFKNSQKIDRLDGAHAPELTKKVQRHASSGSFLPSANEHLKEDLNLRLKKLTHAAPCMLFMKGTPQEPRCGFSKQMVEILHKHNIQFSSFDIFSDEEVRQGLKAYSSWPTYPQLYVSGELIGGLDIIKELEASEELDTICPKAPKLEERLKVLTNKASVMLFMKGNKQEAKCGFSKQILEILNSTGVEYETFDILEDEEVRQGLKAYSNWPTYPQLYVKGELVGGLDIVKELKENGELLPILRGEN
UniProt P46087, sequence (P46087 whole entry): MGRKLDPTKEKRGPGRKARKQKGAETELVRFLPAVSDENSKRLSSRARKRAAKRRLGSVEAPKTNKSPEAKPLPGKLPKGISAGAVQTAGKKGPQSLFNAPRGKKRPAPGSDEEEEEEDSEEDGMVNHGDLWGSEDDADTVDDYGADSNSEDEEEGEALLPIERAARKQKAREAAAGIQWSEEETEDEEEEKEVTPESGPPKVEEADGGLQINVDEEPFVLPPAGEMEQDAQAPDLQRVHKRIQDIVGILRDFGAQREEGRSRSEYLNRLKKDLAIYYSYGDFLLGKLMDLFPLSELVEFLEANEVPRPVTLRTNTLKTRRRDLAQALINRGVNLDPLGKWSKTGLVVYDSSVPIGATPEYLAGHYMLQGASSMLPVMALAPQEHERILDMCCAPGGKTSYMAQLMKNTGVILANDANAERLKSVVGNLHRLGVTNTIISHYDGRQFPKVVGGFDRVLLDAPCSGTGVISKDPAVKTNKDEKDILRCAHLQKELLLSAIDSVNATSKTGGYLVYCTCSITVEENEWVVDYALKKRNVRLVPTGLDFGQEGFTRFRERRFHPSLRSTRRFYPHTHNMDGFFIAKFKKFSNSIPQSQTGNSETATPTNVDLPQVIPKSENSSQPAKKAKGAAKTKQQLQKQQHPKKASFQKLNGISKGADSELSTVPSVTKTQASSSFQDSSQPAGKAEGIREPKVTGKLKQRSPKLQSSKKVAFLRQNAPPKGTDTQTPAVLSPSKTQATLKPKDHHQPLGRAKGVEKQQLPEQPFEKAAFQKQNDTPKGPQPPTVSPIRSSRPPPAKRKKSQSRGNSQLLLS
UniProt Q5T9L3, sequence (Q5T9L3 whole entry): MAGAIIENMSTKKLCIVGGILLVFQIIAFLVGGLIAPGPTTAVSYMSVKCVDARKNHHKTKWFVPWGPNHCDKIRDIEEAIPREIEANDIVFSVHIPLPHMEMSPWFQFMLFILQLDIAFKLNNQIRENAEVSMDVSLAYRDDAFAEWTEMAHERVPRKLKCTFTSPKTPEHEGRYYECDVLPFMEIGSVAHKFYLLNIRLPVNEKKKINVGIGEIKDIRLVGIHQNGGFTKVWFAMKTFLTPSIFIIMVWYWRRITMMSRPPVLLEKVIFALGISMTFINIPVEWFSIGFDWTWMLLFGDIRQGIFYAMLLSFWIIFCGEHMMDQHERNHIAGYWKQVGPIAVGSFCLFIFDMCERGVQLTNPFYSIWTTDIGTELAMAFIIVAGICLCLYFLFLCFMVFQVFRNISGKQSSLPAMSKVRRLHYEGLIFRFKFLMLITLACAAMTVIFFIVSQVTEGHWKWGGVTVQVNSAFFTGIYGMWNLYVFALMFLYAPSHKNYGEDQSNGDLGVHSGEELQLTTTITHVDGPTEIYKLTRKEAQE
UniProt Q9UBE0, sequence (Q9UBE0 whole entry): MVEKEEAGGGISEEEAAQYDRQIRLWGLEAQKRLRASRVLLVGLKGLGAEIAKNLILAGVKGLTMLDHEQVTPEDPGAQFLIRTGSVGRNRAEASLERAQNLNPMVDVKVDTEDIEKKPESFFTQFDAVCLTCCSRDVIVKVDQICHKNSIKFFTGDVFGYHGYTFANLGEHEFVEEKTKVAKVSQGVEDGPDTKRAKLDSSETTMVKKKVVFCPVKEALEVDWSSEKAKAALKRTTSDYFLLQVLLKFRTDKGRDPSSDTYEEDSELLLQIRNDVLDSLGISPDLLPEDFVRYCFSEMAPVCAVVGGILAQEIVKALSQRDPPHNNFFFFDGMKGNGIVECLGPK
UniProt Q13098, sequence (Q13098 whole entry): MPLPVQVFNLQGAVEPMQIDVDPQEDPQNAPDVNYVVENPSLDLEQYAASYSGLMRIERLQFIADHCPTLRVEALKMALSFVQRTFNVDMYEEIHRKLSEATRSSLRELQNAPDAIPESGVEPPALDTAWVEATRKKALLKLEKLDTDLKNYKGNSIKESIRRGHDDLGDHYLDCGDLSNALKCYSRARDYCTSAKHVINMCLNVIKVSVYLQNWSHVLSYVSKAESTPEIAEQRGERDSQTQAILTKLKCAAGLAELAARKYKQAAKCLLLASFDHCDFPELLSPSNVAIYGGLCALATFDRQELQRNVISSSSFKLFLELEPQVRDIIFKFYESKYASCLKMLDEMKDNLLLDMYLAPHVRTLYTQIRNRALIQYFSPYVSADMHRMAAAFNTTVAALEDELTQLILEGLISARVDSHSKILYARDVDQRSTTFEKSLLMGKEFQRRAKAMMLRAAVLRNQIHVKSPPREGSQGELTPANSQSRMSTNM
UniProt P41214, sequence (P41214 whole entry): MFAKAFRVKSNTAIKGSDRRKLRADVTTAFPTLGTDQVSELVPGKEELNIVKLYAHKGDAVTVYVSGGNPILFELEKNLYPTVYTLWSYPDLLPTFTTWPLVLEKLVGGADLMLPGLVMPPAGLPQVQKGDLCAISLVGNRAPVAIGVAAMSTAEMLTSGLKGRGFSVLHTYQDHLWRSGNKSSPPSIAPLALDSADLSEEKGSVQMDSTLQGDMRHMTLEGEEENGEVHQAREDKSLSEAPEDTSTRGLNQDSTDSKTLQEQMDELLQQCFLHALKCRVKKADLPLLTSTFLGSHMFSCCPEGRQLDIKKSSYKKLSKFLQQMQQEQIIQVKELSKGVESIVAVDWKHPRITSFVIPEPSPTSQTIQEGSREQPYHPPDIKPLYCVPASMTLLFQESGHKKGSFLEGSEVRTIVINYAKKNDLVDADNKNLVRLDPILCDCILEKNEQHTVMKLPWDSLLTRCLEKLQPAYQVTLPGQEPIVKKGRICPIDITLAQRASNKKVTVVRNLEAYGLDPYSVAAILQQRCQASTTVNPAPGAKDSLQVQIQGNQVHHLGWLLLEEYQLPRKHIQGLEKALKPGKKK
UniProt Q96PM5, sequence (Q96PM5 whole entry): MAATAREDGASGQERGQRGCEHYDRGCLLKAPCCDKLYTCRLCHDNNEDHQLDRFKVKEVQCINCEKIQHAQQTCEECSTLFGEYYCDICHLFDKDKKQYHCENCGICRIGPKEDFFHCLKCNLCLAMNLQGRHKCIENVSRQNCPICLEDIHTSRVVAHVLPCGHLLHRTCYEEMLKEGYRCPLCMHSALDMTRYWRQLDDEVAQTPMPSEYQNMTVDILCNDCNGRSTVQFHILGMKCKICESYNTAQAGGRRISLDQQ
UniProt Q8N5A5, sequence (Q8N5A5 whole entry): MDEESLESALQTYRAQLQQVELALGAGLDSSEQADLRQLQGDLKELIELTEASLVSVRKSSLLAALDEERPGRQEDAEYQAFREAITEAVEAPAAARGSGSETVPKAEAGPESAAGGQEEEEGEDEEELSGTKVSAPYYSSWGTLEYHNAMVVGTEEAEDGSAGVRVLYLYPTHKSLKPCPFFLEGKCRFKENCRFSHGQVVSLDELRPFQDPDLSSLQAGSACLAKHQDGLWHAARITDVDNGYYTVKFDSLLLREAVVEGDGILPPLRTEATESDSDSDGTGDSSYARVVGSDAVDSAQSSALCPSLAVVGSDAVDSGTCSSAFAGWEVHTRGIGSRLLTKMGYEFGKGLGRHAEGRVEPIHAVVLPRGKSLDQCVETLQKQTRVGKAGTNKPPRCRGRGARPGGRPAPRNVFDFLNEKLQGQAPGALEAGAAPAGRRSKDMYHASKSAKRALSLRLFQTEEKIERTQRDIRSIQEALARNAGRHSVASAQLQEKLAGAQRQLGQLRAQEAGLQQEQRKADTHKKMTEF

With RPL22 (UniProt P35268), the results for the thermal stability z-score in assay [1] (setting [3]), in assay [1] (arsenate co-treatment: none) and in assay [2] were -0.122, -0.292 and -0.98, respectively.
The corresponding values for PCM1 (UniProt Q15154) are -0.0188, -0.104 and 0.131.
Regarding OPTN (UniProt Q96CV9), the thermal stability z-score in assay [1] (setting [3]) was -0.94; in assay [1] (arsenate co-treatment: none) it was -0.477; in assay [2] it was 1.01.
On the same counts, the results for FKBP1A (UniProt P62942) are 0.374, 0.262 and -1.96.
The corresponding values for ZGPAT (UniProt Q8N5A5) are -0.303, -0.13 and -0.307.
The corresponding values for KLC2 (UniProt Q9H0B6) are -0.0443, 0.117 and 0.557.
On to RPS29 (UniProt P62273), for which the thermal stability z-score in assay [1] (setting [3]) is 1.14; in assay [1] (arsenate co-treatment: none) it was 1.17; in assay [2], -0.415.
The corresponding values for TUSC1 (UniProt Q2TAM9) are 0.515, 0.368 and 0.0895.
The corresponding values for WLS (UniProt Q5T9L3) are -2.04, -1.12 and 0.0899.
On the same counts, the results for TCEB1 (UniProt Q15369) are -0.0847, -0.122 and -0.0354.
Regarding MON2 (UniProt Q7Z3U7), the thermal stability z-score in assay [1] (setting [3]) was 0.0206; in assay [1] (arsenate co-treatment: none), 0.307; in assay [2], 0.63.
The corresponding values for GPS1 (UniProt Q13098) are 0.881, 0.892 and 0.904.
The corresponding values for C8ORF82 (UniProt Q6P1X6) are 0.229, -0.151 and -0.319.
EIF2D (UniProt P41214): the thermal stability z-score in assay [1] (setting [3]) was -1.12; in assay [1] (arsenate co-treatment: none) it was -0.337; in assay [2], -1.22.
On the same counts, the results for YRDC (UniProt Q86U90) are 0.45, 0.0491 and 0.341.
On the same counts, the results for SAE1 (UniProt Q9UBE0) are -0.694, -0.826 and -0.458.
Turning to BAT3|BAG6, the thermal stability z-score is -0.102 in assay [1] (setting [3]), -0.0326 in assay [1] (arsenate co-treatment: none) and 0.518 in assay [2].
For the target CSNK2B (UniProt P67870), the thermal stability z-score in assay [1] (setting [3]) is 1.66; in assay [1] (arsenate co-treatment: none), 1.48; in assay [2] it was 0.656.
The corresponding values for GLRX3 (UniProt O76003) are 0.153, 0.465 and 0.88.
On the same counts, the results for RCHY1 (UniProt Q96PM5) are -0.131, -0.0834 and -0.571.
With DHX16 (UniProt O60231), the figures for the thermal stability z-score in assay [1] (setting [3]), in assay [1] (arsenate co-treatment: none) and in assay [2] were -0.223, 0.345 and -1.81, respectively.
For HDAC7 (UniProt Q8WUI4), the thermal stability z-score in assay [1] (setting [3]) is 0.158; in assay [1] (arsenate co-treatment: none) it was -0.253; in assay [2], -0.534.
As for NDUFV1 (UniProt P49821), the results for the thermal stability z-score in assay [1] (setting [3]), in assay [1] (arsenate co-treatment: none) and in assay [2] were 0.281, 0.0892 and 0.585, respectively.
On the same counts, the results for STIM2 (UniProt Q9P246) are -0.102, -0.0704 and -0.103.
On the same counts, the results for BLMH (UniProt Q13867) are 0.51, 0.365 and 0.0746.
The corresponding values for NOP2 (UniProt P46087) are 0.976, -0.163 and -0.016.
In the case of MYO18A, the thermal stability z-score in assay [1] (setting [3]) is -0.283; in assay [1] (arsenate co-treatment: none), 0.122; in assay [2], 0.197.
The corresponding values for ANKRD52 (UniProt Q8NB46) are -0.69, -0.0975 and -0.372.
